Measurements as given in patent US20190030053A1, “COMPOSITION FOR INCREASING EXPRESSION OF PGC-1alpha” (BENEBIOSIS CO., LTD., priority 2016, published 2019).

Legend:
[1] = tested on: PGC-1α and related genes; test: Gene expression in brain and hippocampus of Alzheimer's disease models; type: in vivo, mouse; conditions: 3×Tg mice, oral 0.1 mg/kg/day, 10 weeks
Excerpt: In order to investigate the changes in gene expression and cognitive ability by the treatment with SL (3′-SL & 6′-SL) compositions in Alzheimer's brain disease models, 6-week-old mice were purchased from Central Lab Animal (Korea). Water was freely accessible, and a commercially available pellet feed (Dooyeul Biotech, Korea) was given for two weeks. At 8 weeks of age, the mice were divided into three groups (composed of eight mice for each group): Eight 8-week-old male c57/BL6 mice (normal mice; initial body weight, average 35.6±3.3 g) treated with a normal diet were used for a control group. […]
Sialyllactose or DW was orally administered daily. […] The dietary intake and body weight change were measured every 5 days. […]
The gene expression changes by the treatment with SL (3′-SL & 6′-SL) compositions were quantitatively compared in two main organs (brain and hippocampus) associated with bran diseases. […] RNA was extracted by TRIzol agent (Invitrogen). cDNA was synthesized by using RNA, which has been extracted as above and quantified, and a reverse transcription system (Promega, USA). The expression patterns of PGC-1α and related genes were measured by using pre-designed primers and probes (Applied Biosystems; PGC-1α, Mm00447181_m1, GAPDH, and Mm99999915_q1) for the synthesized cDNA and analysis targets (Fndc5, PGC-1α, Erra, UCP1, BDNF, SOD2, and GPX1). […]

[2] = tested on: telomerase; test: Telomerase activity (TRAP) in vivo, aorta of aging stimulation models; set-up: species or system mouse; conditions: oral 0.1 mg/kg/day
Description: In order to investigate the gene expression changes by body parts by the treatment with SL (3′-SL & 6′-SL) compositions in aging stimulation models, 4-week-old male aging stimulation model mice (SAM P1/Sku Slc) were purchased from Central Lab Animal (Korea). Water was freely accessible, and a commercially available pellet feed (Dooyeul Biotech, Korea) was given for one week. […]
In FIGS. 18a and 18b, the telomerase activity was measured using TRAP protocol (Wright et al., 1995). […] The fluorescence of the thus obtained TRAP product was measured using a fluorescent plate reader to quantify telomerase activity. Relative telomerase activity was normalized by the ratio of native […] to sulforhodamine (internal control standard), expressed as a percentage. […]

[3] = tested on: mouse aortic smooth muscle cells (MASMs); test: Mitochondrial superoxide production (MitoSOX Red) in MASMs of arteriosclerosis model mice; type: cell-based; conditions: MASMs from PGC-1α+/+ApoE−/− mice; SL added to culture liquid
Description: For the measurement of mitochondrial superoxide production, mitochondrial ROS was measured using MitoSOX Red (mitochondrial superoxide fluorescent marker). MASMs were extracted, and incubated with MitoSOX (4 μM) in the dark room at 37° C. for 20 minutes. The MitoSOX fluorescence was quantified by the cell fluorescence intensity read using a fluorescent plate reader (480 nm excitation/580 nm emission) (FIG. 19b).
In FIGS. 19a and 19b, MASMs were extracted from the model mouse (PGC-1α^+/+ApoE^−/−) control group, and the SL (3′-SL & 6′-SL) compositions were added to the culture liquid to conduct comparison.
FIGS. 19a and 19b show the measurement results of intercellular H2O2 (ROS values) (FIG. 19a) and the measurement results of mitochondrial superoxide production (FIG. 19b). MASMs were extracted from the model mice (PGC-1α^+/+ApoE^−/−), and the SL (3′-SL & 6′-SL) compositions were added to the culture liquid to conduct comparison.

SMILES	expression levels of PGC-1α and related genes vs SL non-administration (Alzheimer's disease model) group [1]	expression levels of PGC-1α and related genes vs normal control group [1]	telomerase activity in aorta sample (in vivo) [2]	mitochondrial superoxide production [3]
CC(=O)N[C@H]1[C@H]([C@H](O)[C@H](O)CO)O[C@@](OC[C@H]2O[C@@H](O[C@H]3[C@H](O)[C@@H](O)[C@H](O)O[C@@H]3CO)[C@H](O)[C@@H](O)[C@H]2O)(C(=O)O)C[C@@H]1O [6′-SL, α-NeuNAc-(2→6)-β-D-Gal-(1→4)-D-Glc]	very high	somewhat lower	increased telomerase activity	inhibited the mitochondrial superoxide production
CC(=O)N[C@H]1[C@H]([C@H](O)[C@H](O)CO)O[C@@](O[C@H]2[C@@H](O)[C@@H](CO)O[C@@H](O[C@H]3[C@H](O)[C@@H](O)C(O)O[C@@H]3CO)[C@@H]2O)(C(=O)O)C[C@@H]1O (stereo partly drawn) [3′-SL, α-NeuNAc-(2→3)-β-D-Gal-(1→4)-D-Glc]	relatively low compared with 6′-SL		increased telomerase activity	inhibited the mitochondrial superoxide production
